This is an account of results in ChEMBL document CHEMBL5303304, “EUbOPEN Chemogenomics Library - IncuCyte” (2023).

Common to all, as to type: toxicity, cell-based
Data set [1] has as its system HEK-293T. In words: Incucyte cell viability with HEK293T. The conditions noted are these: human, 10 µM, compound concentration 10 uM.
Data set [2] concerns Fibroblast. Kind of data set: Incucyte cell viability with human fibroblast. The note with it: 10 µM, compound concentration 10 uM.
In data set [3] the test system is U2OS. In words: Incucyte cell viability with U2OS. The note with it: human, 10 µM, compound concentration 10 uM.

Molecules are shown by their SMILES.
Note: unitless GR value; below 1 slowed growth and below 0 cell loss.

For `CCCn1cc(-c2cc(C3C(=O)N(CC)c4ccc(C(F)(F)F)cc4N(c4ccccc4)C3=O)cc(OC)c2O)cn1` (stereo not given), the “Growth Rate” value in data set [1] (0 h, replicate number 1) is 0.67; in data set [1] (0 h, replicate number 2), 0.59; in data set [2] (0 h, replicate number 2) it was 0.51; in data set [2] (6 h, replicate number 1) it was 0.92; in data set [2] (6 h, replicate number 2) it was -0.56; in data set [2] (12 h, replicate number 2), 0.46. Further, the “Growth Rate” value in data set [2] (18 h, replicate number 2) is 0.74; in data set [2] (24 h, replicate number 2), 0.85; in data set [3] (24 h, replicate number 1), 0.91.

Turning to `Cc1cc2c(cc(C(=O)N[C@H](CO)c3ccc(S(=O)(=O)CC(=O)O)cc3)n2C)c(Cl)c1Cl`, the “Growth Rate” value in data set [1] (0 h, replicate number 1) stood at 0.87; in data set [1] (6 h, replicate number 1), 0.99; in data set [1] (24 h, replicate number 1) it was 0.99; in data set [2] (6 h, replicate number 1), 0.15; in data set [2] (12 h, replicate number 2), 0.77; in data set [2] (18 h, replicate number 2), 0.68. For the same compound, the “Growth Rate” value in data set [3] (6 h, replicate number 1) is 0.61; in data set [3] (6 h, replicate number 2) it was 0.7; in data set [3] (12 h, replicate number 2) it was 0.94; in data set [3] (18 h, replicate number 1) it was 0.92; in data set [3] (18 h, replicate number 2) it was 0.79; in data set [3] (24 h, replicate number 1), 0.95. The “Growth Rate” value in data set [3] (24 h, replicate number 2) worked out at 1.

Take `CNC(=O)COc1cc2cc(Nc3nc(N4C[C@H](C)C[C@H](C)C4)ncc3Cl)ccc2n(C)c1=O`: the “Growth Rate” value in data set [1] (0 h, replicate number 1) is reported as 0.06; in data set [1] (0 h, replicate number 2), 0.7; in data set [2] (0 h, replicate number 2) it was -0.82; in data set [2] (6 h, replicate number 1) it was 0.72; in data set [2] (12 h, replicate number 1) it was 0.96; in data set [2] (18 h, replicate number 1), 0.7. In addition, the “Growth Rate” value in data set [2] (24 h, replicate number 1) is 0.99; in data set [3] (0 h, replicate number 2), 0.58; in data set [3] (6 h, replicate number 1) it was 0.85; in data set [3] (12 h, replicate number 2) it was 0.85; in data set [3] (18 h, replicate number 1) it was 0.92; in data set [3] (24 h, replicate number 1), 0.95.

With `Cn1cnc(Cn2ccc3ccc(CNCc4[nH]c5ccccc5c4[C@H]4NC(=O)c5ccc(O)cc54)cc32)c1`, the “Growth Rate” value in data set [1] (0 h, replicate number 1) is recorded as -0.01; in data set [2] (0 h, replicate number 1) it was -0.98; in data set [2] (0 h, replicate number 2) it was -0.84; in data set [2] (6 h, replicate number 1) it was 0.19; in data set [2] (6 h, replicate number 2), 0.48; in data set [2] (18 h, replicate number 1), 0.68. Moreover, the “Growth Rate” value worked out at 0.8 in data set [2] (18 h, replicate number 2); 0.28 in data set [3] (0 h, replicate number 2); 0.88 in data set [3] (6 h, replicate number 1); 0.3 in data set [3] (6 h, replicate number 2); 0.98 in data set [3] (12 h, replicate number 1); 0.81 in data set [3] (12 h, replicate number 2). Further, the “Growth Rate” value in data set [3] (18 h, replicate number 2) was 0.67; in data set [3] (24 h, replicate number 1), 0.91; in data set [3] (24 h, replicate number 2), 0.9.

For the compound `Cc1cc(OCCC(C)(C)O)cc(C)c1-c1ccc(F)c2c1CC[C@H]2Oc1ccc2c(c1)OC[C@H]2CC(=O)O`, the “Growth Rate” value in data set [1] (0 h, replicate number 1) is listed as 0.74; in data set [1] (0 h, replicate number 2), 0.8; in data set [1] (6 h, replicate number 1), 0.79; in data set [1] (12 h, replicate number 1), 0.91; in data set [1] (12 h, replicate number 2), 0.86; in data set [1] (18 h, replicate number 1) it was 0.98. For the same compound, the “Growth Rate” value is -0.99 in data set [2] (0 h, replicate number 1); 0.77 in data set [2] (6 h, replicate number 1); -0.01 in data set [2] (12 h, replicate number 2); 0.57 in data set [2] (18 h, replicate number 2); 0.67 in data set [2] (24 h, replicate number 2); 0.95 in data set [3] (0 h, replicate number 1). In addition, the “Growth Rate” value was found to be 0.51 in data set [3] (6 h, replicate number 1); 0.97 in data set [3] (12 h, replicate number 1); 0.87 in data set [3] (12 h, replicate number 2); 0.74 in data set [3] (18 h, replicate number 1); 0.88 in data set [3] (18 h, replicate number 2); 0.98 in data set [3] (24 h, replicate number 1). Also, the “Growth Rate” value in data set [3] (24 h, replicate number 2) is on record as 0.84.

Regarding `CN1CCC(C#N)(NC(=O)[C@@H](NC(=O)N2CCOCC2)C(C)(C)C)CC1`, the “Growth Rate” value in data set [1] (0 h, replicate number 1) is 0.92; in data set [1] (0 h, replicate number 2), 0.91; in data set [1] (6 h, replicate number 1), 0.8; in data set [2] (0 h, replicate number 2), -0.99; in data set [2] (6 h, replicate number 1), 0.5; in data set [2] (18 h, replicate number 1), 0.98. For the same compound, the “Growth Rate” value in data set [2] (18 h, replicate number 2) is given as 0.75; in data set [2] (24 h, replicate number 1) it was 0.99; in data set [3] (0 h, replicate number 2), 0.61; in data set [3] (6 h, replicate number 2) it was 0.92; in data set [3] (12 h, replicate number 1), 0.98; in data set [3] (18 h, replicate number 1), 0.98. Besides, the “Growth Rate” value in data set [3] (18 h, replicate number 2) is listed as 1; in data set [3] (24 h, replicate number 1), 0.92.

With `Cc1nc2cccnc2n2c(-c3cc(C(C)(C)O)ncc3Cl)nnc12`, the “Growth Rate” value is 0.72 in data set [1] (0 h, replicate number 1); -0.52 in data set [1] (0 h, replicate number 2); -1 in data set [2] (0 h, replicate number 1); -0.22 in data set [2] (0 h, replicate number 2); 0.43 in data set [2] (6 h, replicate number 1); 0.63 in data set [2] (18 h, replicate number 1). The “Growth Rate” value is on record as 0.27 in data set [3] (0 h, replicate number 2); 0.32 in data set [3] (6 h, replicate number 2); 0.74 in data set [3] (12 h, replicate number 2); 0.95 in data set [3] (18 h, replicate number 2).

As to `N#Cc1ccc(C#CC[C@@H](C#N)NC(=O)[C@@H]2CCCCN2)cc1F`, the “Growth Rate” value was 0.68 in data set [1] (0 h, replicate number 1); 0.76 in data set [1] (6 h, replicate number 2); 0.89 in data set [1] (12 h, replicate number 2); -1 in data set [2] (0 h, replicate number 1); -0.9 in data set [2] (0 h, replicate number 2); 0.62 in data set [2] (6 h, replicate number 1). Besides, the “Growth Rate” value is reported as 0.89 in data set [2] (12 h, replicate number 1); 1 in data set [2] (12 h, replicate number 2); 0.73 in data set [2] (18 h, replicate number 1); 0.9 in data set [2] (18 h, replicate number 2); 0.74 in data set [2] (24 h, replicate number 1); 0.67 in data set [3] (0 h, replicate number 1). Besides, the “Growth Rate” value in data set [3] (0 h, replicate number 2) amounted to 0.31; in data set [3] (6 h, replicate number 1), 0.57; in data set [3] (12 h, replicate number 1), 0.92; in data set [3] (12 h, replicate number 2) it was 0.73; in data set [3] (18 h, replicate number 2), 0.85; in data set [3] (24 h, replicate number 2), 0.86.

As to `Cn1cnc(Cn2ccc3ccc(CNCc4[nH]c5ccccc5c4[C@@H]4NC(=O)c5ccc(O)cc54)cc32)c1`, the “Growth Rate” value is recorded as 0.61 in data set [1] (0 h, replicate number 1); -0.98 in data set [2] (0 h, replicate number 1); 0.6 in data set [2] (0 h, replicate number 2); 0.3 in data set [2] (6 h, replicate number 1); -0.87 in data set [2] (6 h, replicate number 2); 0.75 in data set [2] (12 h, replicate number 2). Besides, the “Growth Rate” value in data set [2] (18 h, replicate number 1) was determined as 0.8; in data set [2] (18 h, replicate number 2), 0.38; in data set [2] (24 h, replicate number 1) it was 0.98; in data set [2] (24 h, replicate number 2) it was 0.88; in data set [3] (6 h, replicate number 1), 0.54; in data set [3] (6 h, replicate number 2), 0.95. Besides, the “Growth Rate” value in data set [3] (12 h, replicate number 1) is 0.8; in data set [3] (12 h, replicate number 2) it was 0.81; in data set [3] (18 h, replicate number 1) it was 0.99; in data set [3] (18 h, replicate number 2), 0.85; in data set [3] (24 h, replicate number 1) it was 0.95.

With `CS(=O)(=O)O.C[C@H](NC(=O)c1cnc2n1[C@](C)(Cc1ccc(C#N)cc1)C(=O)N2c1cc(Cl)c(F)c(Cl)c1)C(=O)NC1(c2ccccn2)CC1`, the “Growth Rate” value in data set [1] (0 h, replicate number 1) is on record as 0.44; in data set [1] (0 h, replicate number 2), 0.94; in data set [2] (0 h, replicate number 1), -1; in data set [2] (6 h, replicate number 1), 0.73; in data set [2] (6 h, replicate number 2), 0.85; in data set [2] (12 h, replicate number 2), 0.94. Further, the “Growth Rate” value in data set [2] (18 h, replicate number 1) is recorded as 0.98; in data set [2] (18 h, replicate number 2), 0.61; in data set [2] (24 h, replicate number 1), 0.73; in data set [2] (24 h, replicate number 2) it was 0.87; in data set [3] (0 h, replicate number 2) it was -0.46; in data set [3] (6 h, replicate number 1), 0.8. In addition, the “Growth Rate” value is on record as 0.54 in data set [3] (6 h, replicate number 2); 0.92 in data set [3] (12 h, replicate number 1); 0.49 in data set [3] (12 h, replicate number 2); 0.98 in data set [3] (18 h, replicate number 1); 0.81 in data set [3] (18 h, replicate number 2); 0.82 in data set [3] (24 h, replicate number 1).
